Source: ChEMBL document CHEMBL3751718, “Synthesis and biological evaluation of lipid-like 5-(2-hydroxyethyl)-4-methyl-1,3-thiazole derivatives as potential anticancer and antimicrobial agents” (Medchemcomm, 2015)
≈ marks a conversion by molar mass, not a printed value. Calls of active or inactive are those of the source. The calls are words filed in the database; no cut-off is given here.

What was measured:
HT-1080 [1] = experiment: Induction of nitric oxide production in human HT1080 cells by Griess assay; format: functional; parameters: concentration or dose not given beside the values
[2] = Cytotoxicity against mouse NIH/3T3 cells assessed as cell viability at 6.25 to 50 ug/ml by neutral red-based assay; conditions: nih3t3
MG-22A [3] = experiment: Induction of nitric oxide production in mouse MG-22A cells by Griess assay; format: functional; parameters: concentration or dose not given beside the values
Escherichia coli [4] = experiment: Antibacterial activity against Escherichia coli MSCL 332 at 10 mg/ml after 24 hrs by agar dish diffusion method; format: functional; conditions: MSCL 332, 24 h, read-out: DIZ
MG-22A [5] = experiment: Cytotoxicity against mouse MG-22A cells assessed as cell viability at 6.25 to 50 ug/ml by crystal violet-based assay; format: functional
Proteus mirabilis [6] = experiment: Antibacterial activity against Proteus mirabilis MSCL 590 at 5 mg/ml after 24 hrs by agar dish diffusion method; format: functional; conditions: MSCL 590, 24 h, read-out: DIZ
Pseudomonas aeruginosa [7] = experiment: Antibacterial activity against Pseudomonas aeruginosa MSCL 331 at 10 mg/ml after 24 hrs by agar dish diffusion method; format: functional
HT-1080 [8] = experiment: (§1) Cytotoxicity against human HT1080 cells assessed as cell viability at 6.25 to 50 ug/ml by crystal violet-based assay; format: functional
Escherichia coli [9] = experiment: Antibacterial activity against Escherichia coli MSCL 332 at 5 mg/ml after 24 hrs by agar dish diffusion method; format: functional; conditions: MSCL 332, 24 h, read-out: DIZ
Pseudomonas aeruginosa [10] = experiment: Antibacterial activity against Pseudomonas aeruginosa MSCL 331 at 5 mg/ml after 24 hrs by agar dish diffusion method; format: functional
Candida albicans [11] = experiment: Antifungal activity against Candida albicans MSCL 378 at 10 mg/ml after 48 hrs by agar dish diffusion method; format: functional; conditions: MSCL 378, 48 h, read-out: DIZ
Candida albicans [12] = experiment: Antifungal activity against Candida albicans MSCL 378 at 5 mg/ml after 48 hrs by agar dish diffusion method; format: functional; conditions: MSCL 378, 48 h, read-out: DIZ
Staphylococcus aureus [13] = experiment: Antibacterial activity against Staphylococcus aureus MSCL 334 at 5 mg/ml after 24 hrs by agar dish diffusion method; format: functional
Proteus mirabilis [14] = experiment: Antibacterial activity against Proteus mirabilis MSCL 590 at 10 mg/ml after 24 hrs by agar dish diffusion method; format: functional; conditions: MSCL 590, 24 h, read-out: DIZ
Bacillus cereus [15] = experiment: Antibacterial activity against Bacillus cereus MSCL 330 at 5 mg/ml after 24 hrs by agar dish diffusion method; format: functional; conditions: MSCL 330, 24 h, read-out: DIZ
Staphylococcus aureus [16] = experiment: Antibacterial activity against Staphylococcus aureus MSCL 334 at 10 mg/ml after 24 hrs by agar dish diffusion method; format: functional
MG-22A [17] = experiment: Cytotoxicity against mouse MG-22A cells assessed as cell viability at 6.25 to 50 ug/ml after 72 hrs by MTT assay; format: functional
HT-1080 [18] = experiment: (§2) Cytotoxicity against human HT1080 cells assessed as cell viability at 6.25 to 50 ug/ml after 72 hrs by MTT assay; format: functional
Aspergillus niger [19] = experiment: Antifungal activity against Aspergillus niger MSCL 324 at 5 mg/ml after 48 hrs by agar dish diffusion method; format: functional
Aspergillus niger [20] = experiment: Antifungal activity against Aspergillus niger MSCL 324 at 10 mg/ml after 48 hrs by agar dish diffusion method; format: functional; conditions: MSCL 324, 48 h, read-out: DIZ
Bacillus cereus [21] = experiment: Antibacterial activity against Bacillus cereus MSCL 330 at 10 mg/ml after 24 hrs by agar dish diffusion method; format: functional; conditions: MSCL 330, 24 h, read-out: DIZ
Aspergillus niger [22] = experiment: Antifungal activity against Aspergillus niger MSCL 324 at 2 mg/ml after 48 hrs by agar dish diffusion method; format: functional; conditions: MSCL 324, 48 h, read-out: DIZ
Candida albicans [23] = experiment: Fungicidal activity against Candida albicans MSCL 378 incubated for 24 hrs followed by colony transfer to agar plates for 24 hrs by colony counting based assay; format: functional; conditions: MSCL 378, 24 h, read-out: MFC99.9
Bacillus cereus [24] = experiment: Antibacterial activity against Bacillus cereus MSCL 330 at 4 mg/ml after 24 hrs by agar dish diffusion method; format: functional, organism-based
Staphylococcus aureus [25] = experiment: Antibacterial activity against Staphylococcus aureus MSCL 334 at 4 mg/ml after 24 hrs by agar dish diffusion method; format: functional, organism-based
Pseudomonas aeruginosa [26] = experiment: Antibacterial activity against Pseudomonas aeruginosa MSCL 331 at 4 mg/ml after 24 hrs by agar dish diffusion method; format: functional, organism-based
Escherichia coli [27] = experiment: Antibacterial activity against Escherichia coli MSCL 332 at 2 mg/ml after 24 hrs by agar dish diffusion method; format: functional, organism-based
Escherichia coli [28] = experiment: Antibacterial activity against Escherichia coli MSCL 332 at 4 mg/ml after 24 hrs by agar dish diffusion method; format: functional, organism-based
Candida albicans [29] = experiment: Antifungal activity against Candida albicans MSCL 378 after 24 hrs by broth dilution method; format: functional; conditions: MSCL 378, 24 h
Aspergillus niger [30] = experiment: Antifungal activity against Aspergillus niger MSCL 324 after 24 hrs by broth dilution method; format: functional; conditions: MSCL 324, 24 h
Aspergillus niger [31] = experiment: Antifungal activity against Aspergillus niger MSCL 324 at 4 mg/ml after 48 hrs by agar dish diffusion method; format: functional; conditions: MSCL 324, 48 h, read-out: DIZ
Proteus mirabilis [32] = experiment: Antibacterial activity against Proteus mirabilis MSCL 590 at 4 mg/ml after 24 hrs by agar dish diffusion method; format: functional, organism-based
Pseudomonas aeruginosa [33] = experiment: Antibacterial activity against Pseudomonas aeruginosa MSCL 331 at 2 mg/ml after 24 hrs by agar dish diffusion method; format: functional, organism-based
Proteus mirabilis [34] = experiment: Antibacterial activity against Proteus mirabilis MSCL 590 at 2 mg/ml after 24 hrs by agar dish diffusion method; format: functional, organism-based
Candida albicans [35] = experiment: Antifungal activity against Candida albicans MSCL 378 at 2 mg/ml after 48 hrs by agar dish diffusion method; format: functional; conditions: MSCL 378, 48 h, read-out: DIZ
Bacillus cereus [36] = experiment: Antibacterial activity against Bacillus cereus MSCL 330 at 2 mg/ml after 24 hrs by agar dish diffusion method; format: functional, organism-based
Staphylococcus aureus [37] = experiment: Antibacterial activity against Staphylococcus aureus MSCL 334 at 2 mg/ml after 24 hrs by agar dish diffusion method; format: functional, organism-based
Aspergillus niger [38] = experiment: Fungicidal activity against Aspergillus niger MSCL 324 incubated for 24 hrs followed by colony transfer to agar plates for 24 hrs by colony counting based assay; format: functional; conditions: MSCL 324, 24 h, read-out: MFC99.9
[39] = as §1; format: functional; conditions: HT-1080, read-out: LC50 (the source's name)
CCRF S-180 [40] = experiment: Antitumor activity against mouse S180 cells allografted into ICR mouse assessed as tumor growth inhibition at 1.5 mg/kg, sc administered on day 1,2,3 and 7 after 24 hrs tumor transplantation measured on day 9; format: functional, organism-based
CCRF S-180 [41] = experiment: Antitumor activity against mouse S180 cells allografted into ICR mouse assessed as tumor growth inhibition at 2.5 mg/kg, sc administered on day 1,2,3 and 7 after 24 hrs tumor transplantation measured on day 9; format: functional; conditions: CCRF S-180, sc, read-out: TGI
[42] = as §2; format: functional; conditions: HT-1080, 72 h, read-out: LC50 (the source's name)
[43] = read-out: LC50 (the source's name)

Cc1c(CCO)sc[n+]1C.[I-]
Activity (HT-1080 [1]): 2% | LC50 [2]: 643 µg/mL | Activity (MG-22A [3]): 3% | zone of inhibition at 10000 µg/mL (Escherichia coli [4]): 10 mm | LC50 (MG-22A [5]): inactive | zone of inhibition at 5000 µg/mL (Proteus mirabilis [6]): 8 mm | diameter of the inhibition zone (DIZ) (Pseudomonas aeruginosa [7]): inactive | LC50 (HT-1080 [8]): inactive | zone of inhibition at 5000 µg/mL (Escherichia coli [9]): 10 mm | diameter of the inhibition zone (DIZ) (Pseudomonas aeruginosa [10]): inactive | zone of inhibition at 10000 µg/mL (Candida albicans [11]): 13 mm | zone of inhibition at 5000 µg/mL (Candida albicans [12]): 13 mm | diameter of the inhibition zone (DIZ) (Staphylococcus aureus [13]): inactive | zone of inhibition at 10000 µg/mL (Proteus mirabilis [14]): 8 mm | zone of inhibition at 5000 µg/mL (Bacillus cereus [15]): 8 mm | diameter of the inhibition zone (DIZ) (Staphylococcus aureus [16]): inactive | LC50 (MG-22A [17]): inactive | LC50 (HT-1080 [18]): inactive | zone of inhibition at 5000 µg/mL (Aspergillus niger [19]; MSCL 324, 48 h, read-out: DIZ): 9 mm | zone of inhibition at 10000 µg/mL (Aspergillus niger [20]): 15 mm | zone of inhibition at 10000 µg/mL (Bacillus cereus [21]): 8 mm

OC(Cn1cncn1)(Cn1cncn1)c1ccc(F)cc1F [FLUCONAZOLE]
zone of inhibition at 2000 µg/mL (Aspergillus niger [22]): 11 mm | MFC (Candida albicans [23]): > 256 µg/mL | diameter of the inhibition zone (DIZ) (Bacillus cereus [24]): inactive | diameter of the inhibition zone (DIZ) (Staphylococcus aureus [25]): inactive | diameter of the inhibition zone (DIZ) (Pseudomonas aeruginosa [26]): inactive | diameter of the inhibition zone (DIZ) (Escherichia coli [27]): inactive | diameter of the inhibition zone (DIZ) (Escherichia coli [28]): inactive | MIC (Candida albicans [29]): 32 µg/mL (≈ 104 µM) | MIC (Aspergillus niger [30]): 8 µg/mL (≈ 26.1 µM) | zone of inhibition at 4000 µg/mL (Aspergillus niger [31]): 18 mm | diameter of the inhibition zone (DIZ) (Proteus mirabilis [32]): inactive | diameter of the inhibition zone (DIZ) (Pseudomonas aeruginosa [33]): inactive | diameter of the inhibition zone (DIZ) (Proteus mirabilis [34]): inactive | zone of inhibition at 2000 µg/mL (Candida albicans [35]): 10 mm | diameter of the inhibition zone (DIZ) (Bacillus cereus [36]): inactive | diameter of the inhibition zone (DIZ) (Staphylococcus aureus [37]): inactive | MFC (Aspergillus niger [38]): > 256 µg/mL

CCCCCCCCCCCOCCc1sc[n+](C)c1C.[I-]
Activity (HT-1080 [1]): 150% | LC50 [2]: 93.3 µM | Activity (MG-22A [3]): 150% | zone of inhibition at 10000 µg/mL (Escherichia coli [4]): 27 mm | CC50 (MG-22A [5]; [43]): 1360 nM | zone of inhibition at 5000 µg/mL (Proteus mirabilis [6]): 17 mm | zone of inhibition at 10000 µg/mL (Pseudomonas aeruginosa [7]; MSCL 331, 24 h, read-out: DIZ): 12 mm | CC50 [39]: 1820 nM | inhibition (CCRF S-180 [40]): inactive | zone of inhibition at 5000 µg/mL (Escherichia coli [9]): 25 mm | zone of inhibition at 5000 µg/mL (Pseudomonas aeruginosa [10]; MSCL 331, 24 h, read-out: DIZ): 11 mm | zone of inhibition at 10000 µg/mL (Candida albicans [11]): 30 mm | zone of inhibition at 5000 µg/mL (Candida albicans [12]): 28 mm | inhibition in vivo at 2.5 mg/kg (CCRF S-180 [41]): 56% | zone of inhibition at 5000 µg/mL (Staphylococcus aureus [13]; MSCL 334, 24 h, read-out: DIZ): 29 mm | zone of inhibition at 10000 µg/mL (Proteus mirabilis [14]): 18 mm | zone of inhibition at 5000 µg/mL (Bacillus cereus [15]): 25 mm | zone of inhibition at 10000 µg/mL (Staphylococcus aureus [16]; MSCL 334, 24 h, read-out: DIZ): 32 mm | CC50 (MG-22A [17]; [43]): 1820 nM | CC50 [42]: 1820 nM | diameter of the inhibition zone (DIZ) (Aspergillus niger [19]): inactive | zone of inhibition at 10000 µg/mL (Aspergillus niger [20]): 17 mm | zone of inhibition at 10000 µg/mL (Bacillus cereus [21]): 26 mm
